Test results as given in paper PMC8004798, “Identification of Bioactive Compounds from Marine Natural Products and Exploration of Structure-Activity Relationships (SAR)” (Antibiotics, 2021).
In brackets after ≈: the same amount, converted by molar mass.

Legend:
[1] = test system: methicillin-resistant Staphylococcus aureus (MRSA); assay: Resazurin bacterial inhibition assay (MIC), MRSA; type: cell-based; conditions: Staphylococcus aureus, MRSA; commercial compounds; 18 h, resazurin; read-out: Minimum Inhibitory Concentration MRSA
[2] = test system: P. aeruginosa PAO1; assay: Resazurin bacterial inhibition assay (MIC), P. aeruginosa; type: cell-based; conditions: Pseudomonas aeruginosa, PAO1; commercial compounds; 18 h, resazurin; read-out: Minimum Inhibitory Concentration P. aeruginosa
[3] = test system: human embryonic kidney cells 293 (HEK293); assay: Resazurin cytotoxicity assay, HEK 293; conditions: commercial compounds; unit from Table 8 head
From the text: (§1) To identify marine samples with activity against MRSA, 1434 compounds from the AIMS Bioresources Library (provided by the Queensland Compound Library, Brisbane, Australia, now called Compounds Australia) were screened in a resazurin cell viability assay.
(§2) Toxicity of AIMS Extract Library. Human alveolar epithelial cells (A549), Madin-Darby canine kidney epithelial cells (MDCK), human leukaemia cells (THP-1), human hepatocellular carcinoma cells (Hep-G2) and human embryonic kidney cells 293 (HEK293) were grown and differentiated in complete RPMI (Roswell Park Memorial Institute Medium) and DMEM (Dulbecco’s Modified Eagle’s medium) tissue culture media (RPMIc and DMEMc, from the Thermo Fisher Scientific, Waltham, MA, USA) by adding 10% FBS, 200 µM L-glutamine and 1 mM HEPES buffer solution. To determine toxicity of the AIMS extract library, 2 × 10^5 of each cell type were added to a 96-well plate and left for 48 h in a humidified 5% CO2 incubator at 37 °C to adhere. Extract samples at a final concentration of 0.5 mg mL^−1 were added to the wells, then the plates incubated for 4 more days in a humidified 5% CO2 incubator at 37 °C. Then, resazurin (10 μL of 0.05% w/v) was added and after 4 h, fluorescence measured as described previously. The cell viability was calculated as percentage fluorescence relative to untreated cells.

[4] = test system: human hepatocellular carcinoma cells (Hep-G2); assay: Resazurin cytotoxicity assay, HepG2; conditions: commercial compounds; unit from Table 8 head
From the text: as §1, §2

[5] = test system: E. coli EC958; assay: Resazurin bacterial inhibition assay (MIC), E. coli; type: cell-based; conditions: Escherichia coli, EC958; commercial compounds; 18 h, resazurin; read-out: Minimum Inhibitory Concentration E. coli
[6] = test system: different test pathogens (MRSA, E. coli, P. aeruginosa, M. tuberculosis); assay: Bacterial inhibition assay (MIC), summary over test pathogens; type: cell-based; conditions: read-out: MICs against MRSA, E. coli and P. aeruginosa
Procedure: For screening of the AIMS library, each test sample (10 µL) was dispensed into a separate well of a 96 well microtiter plates (final sample concentration 0.5 mg mL^−1) using sterile dH2O. […] Bacterial suspension (90 µL, OD600nm 0.001) was added to each well and plates were incubated at 37 °C for either 18 h (MRSA, P. aeruginosa PAO1, E. coli EC958) or 7 days for M. tuberculosis H37Rv as described previously. Resazurin (10 μL; 0.05% w/v) was added and plates were incubated for 3 h or 24 h (M. tuberculosis) at 37 °C. The inhibitory activity was calculated by visual determination of colour change within wells or detection of fluorescence at 590 nm using a FLUOstar Omega microplate reader (BMG Labtech, Ortenberg, Germany). Percentage survival was calculated in comparison to the average of untreated control wells after normalising for background readings.

[7] = test system: Human alveolar epithelial cells (A549); assay: Resazurin cytotoxicity assay, A549; conditions: commercial compounds; unit from Table 8 head
From the text: as §1, §2

[8] = test system: M. tuberculosis H37Rv; assay: Resazurin bacterial inhibition assay (MIC), M. tuberculosis; type: cell-based; conditions: Mycobacterium tuberculosis, 168 h, commercial compounds, 7 days, read-out: Minimum Inhibitory Concentration M. tuberculosis H37Rv
[9] = test system: human leukaemia cells (THP-1); assay: Resazurin cytotoxicity assay, THP-1; conditions: commercial compounds; unit from Table 8 head
From the text: as §1
as §2, with “Extract samples at a final concentration of 0.5 mg mL^−1 were added to the wells, then the plates incubated for 4 more days in a humidified 5% CO2 incubator at 37 °C.” left out

CCCCCCN [Hexylamine]
MIC [1]: > 100 µM
MIC [2]: 50 µM (≈ 5.06 µg/mL)
Minimum Toxicity Concentration HEK 293 [3]: >100 µM
Minimum Toxicity Concentration HepG2 [4]: >100 µM
MIC [5]: > 100 µM
MIC [6]: 50 to 100 µM (≈ 5.06 to 10.1 µg/mL)
Minimum Toxicity Concentration A549 [7]: >100 µM
MIC [8]: > 100 µM
Minimum Toxicity Concentration THP-1 [9]: >100 µM

CCCCCCN(CCCCCC)CCCCCC [Trihexylamine]
MIC [1]: 3 µM (≈ 0.809 µg/mL)
MIC [2]: 6.5 µM (≈ 1.75 µg/mL)
Minimum Toxicity Concentration HEK 293 [3]: 50 µM
Minimum Toxicity Concentration HepG2 [4]: >100 µM
MIC [5]: 3 µM (≈ 0.809 µg/mL)
MIC [6]: 3 to 6.5 µM (≈ 0.809 to 1.75 µg/mL)
Minimum Toxicity Concentration A549 [7]: >100 µM
MIC [8]: > 100 µM
Minimum Toxicity Concentration THP-1 [9]: >100 µM
